The target of the test is T1, wild-type HIV-1 protease (Human immunodeficiency virus type 1 group M subtype B, UniProt P04585).
T1 construct: Escherichia coli expressed wild-type HIV-1 protease protein
Kind of test: Assay for Inhibition of Microbial Expressed HIV Protease (peptide substrate cleavage, LC-MS/MS readout). The note with it: E. coli expressed wild-type HIV-1 protease, mean of at least two independent experiments, read-out: HIV Pr Enzyme HIV1 PR IC50. Format: biochemical. In outline: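 Cleavage of Val-Ser-Gln-Asn-(β-naphthyl)Ala-Pro-Ile-Val (400 μM) by recombinant HIV-1 protease ([…]) ran 1 h at 30 °C after a 30 min room-temperature inhibitor preincubation in 50 mM sodium acetate pH 5.5. Product peak areas by LC-MS/MS gave inhibition; values average at least two independent runs.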
The IC50 is the concentration that inhibits the measured activity by half. On to `CC(C)CCC1(c2cccc(-c3cccnc3)c2)NC(=N)N(Cc2cccc(C(=O)N3Cc4cccnc4C3)c2)C1=O` (stereo not shown) [Compound 360, 3-[3-(5,7-dihydro-6H-pyrrolo[3,4-b]pyridin-6-ylcarbonyl)benzyl]-2-imino-5-(3-methylbutyl)-5-(3-pyridin-3-ylphenyl)imidazolidin-4-one], for which the IC50 stood at 95.1 nM. The same measure for `N=C1NC(c2ccccc2)(c2ccccc2)C(=O)N1Cc1cccc(C(=O)N2CCn3cc(C(=O)C4CC4)nc3C2)c1` [Compound 250, 3-(3-{[2-(cyclopropylcarbonyl)-5,6-dihydroimidazo [1,2-a]pyrazin-7(8H)-yl]carbonyl}benzyl)-2-imino-5,5-diphenylimidazolidin-4-one]: 18.9 nM. The same measure for `N=C1NC(c2ccc(F)cc2)(c2cccc(-c3cccnc3)c2)C(=O)N1Cc1cccc(C(=O)N2Cc3ccccc3C2)c1` (stereo not shown) [Compound 284, 3-[3-(1,3-dihydro-2H-isoindol-2-ylcarbonyl)benzyl]-5-(4-fluorophenyl)-2-imino-5-(3-pyridin-3-ylphenyl)imidazolidin-4-one]: 32.7 nM; for `N=C1NC(c2ccccc2)(c2ccccc2)C(=O)N1Cc1cccc(C(=O)N2Cc3[nH]nc(C(F)(F)F)c3C2)c1` [Compound 184, 2-imino-5,5-diphenyl-3-(3-{[3-(trifluoromethyl)-4,6-dihydropyrrolo[3,4-c]pyrazol-5(1H)-yl]carbonyl}benzyl) imidazolidin-4-one]: 2.74 nM; for `CC1(C)CN(C(=O)c2cccc(CN3C(=N)NC(c4ccccc4)(c4ccccc4)C3=O)c2)Cc2nnc(C(F)(F)F)n21` [Compound 300, 3-(3-{[5,5-dimethyl-3-(trifluoromethyl)-5,6-dihydro[1,2,4]triazolo[4,3-a]pyrazin-7(8H)-yl]carbonyl}benzyl)-2-imino-5,5-diphenylimidazolidin-4-one]: 44 nM.

Turning to `CC(C)CCC1(c2ccccc2)NC(=N)N(Cc2cccc(C(=O)N3Cc4cnc(C#N)nc4C3)c2)C1=O` (stereo not shown) [Compound 191, 6-[(3-{[2-imino-4-(3-methylbutyl)-5-oxo-4-phenylimidazolidin-1-yl]methyl}phenyl)carbonyl]-6,7-dihydro-5H-pyrrolo[3,4-d]pyrimidine-2-carbonitrile], the IC50 was determined as 4.17 nM. The same measure for `N=C1NC(c2ccc(F)cc2)(c2ccc(F)cc2)C(=O)N1Cc1cc(C(=O)N2Cc3ccccc3C2)ccn1` [Compound 398, 3-{[4-(1,3-dihydro-2H-isoindol-2-ylcarbonyl)pyridin-2-yl]methyl}-5,5-bis(4-fluorophenyl)-2-iminoimidazolidin-4-one]: 19.2 nM; for `N=C1NC(c2ccc(F)cc2)(c2ccc(F)cc2)C(=O)N1Cc1ccc(Cl)c(C(=O)N2Cc3cncnc3C2)c1` [Compound 376, 3-[4-chloro-3-(5,7-dihydro-6H-pyrrolo[3,4-d]pyrimidin-6-ylcarbonyl)benzyl]-5,5-bis(4-fluorophenyl)-2-iminoimidazolidin-4-one]: 9.6 nM; for `COC(=O)C1c2ccccc2CN1C(=O)c1cccc(CN2C(=N)NC(c3ccccc3)(c3ccccc3)C2=O)c1` (stereo not shown) [Compound 287, methyl 2-({3-[(2-imino-5-oxo-4,4-diphenylimidazolidin-1-yl)methyl]phenyl}carbonyl)-2,3-dihydro-1H-isoindole-1-carboxylate]: 33.9 nM. To `N#Cc1ncc2c(n1)CN(C(=O)c1cc(CN3C(=N)NC(c4ccccc4)(c4ccccc4)C3=O)ccc1C(F)(F)F)C2` [Compound 136, 6-({5-[(2-imino-5-oxo-4,4-diphenylimidazolidin-1-yl)methyl]-2-(trifluoromethyl)phenyl}-carbonyl)-6,7-dihydro-5H-pyrrolo[3,4-d]pyrimidine-2-carbonitrile] belongs 1.81 nM; to `N#Cc1ncc2c(n1)CN(C(=O)c1cc(CN3C(=N)N[C@](CCCC(F)(F)F)(c4ccc(F)cc4)C3=O)ccc1C(F)(F)F)C2` [Compound 58, 6-{[5-{[(4R)-4-(4-fluorophenyl)-2-imino-5-oxo-4-(4,4,4-trifluorobutyl)imidazolidin-1-yl]methyl}-2-(trifluoromethyl)-phenyl]carbonyl}-6,7-dihydro-5H-pyrrolo[3,4-d] pyrimidine-2-carbonitrile], 6.43 nM; to `N=C1NC(c2ccc(F)cc2)(c2ccc(F)cc2)C(=O)N1Cc1cncc(C(=O)N2CCN(C(=O)OCCOCc3ccccc3)CC2)c1` [Compound 391, 2-(benzyloxy)ethyl 4-[(5-{[4,4-bis(4-fluorophenyl)-2-imino-5-oxoimidazolidin-1-yl]methyl}pyridin-3-yl)carbonyl]piperazine-1-carboxylate], 13.6 nM.

With `N=C1NC(c2ccccc2)(c2ccccc2)C(=O)N1Cc1cccc(C(=O)N2CCN(c3ccccc3Cl)CC2)c1` [Compound 238, 3-(3-{[4-(2-chlorophenyl)piperazin-1-yl]carbonyl}benzyl)-2-imino-5,5-diphenylimidazolidin-4-one], the IC50 is 15 nM. To `N=C1NC(c2ccccc2)(c2ccccc2)C(=O)N1Cc1cc(F)cc(C(=O)N2Cc3cncnc3C2)c1` [Compound 258, 3-[3-(5,7-dihydro-6H-pyrrolo[3,4-d]pyrimidin-6-ylcarbonyl)-5-fluorobenzyl]-2-imino-5,5-diphenylimidazolidin-4-one] belongs 22.1 nM; to `N#Cc1ncc2c(n1)CN(C(=O)c1cccc(CN3C(=N)NC(c4ccc(F)cc4)(c4ccc(F)cc4)C3=O)c1)C2` [Compound 182, 6-[(3-{[4,4-bis(4-fluorophenyl)-2-imino-5-oxoimidazolidin-1-yl]methyl}phenyl)carbonyl]-6,7-dihydro-5H-pyrrolo[3,4-d]pyrimidine-2-carbonitrile], 1.7 nM; to `CC(C)CC[C@]1(c2ccc(F)cc2)NC(=N)N(C(Cc2ccccc2)c2ccc(C(F)(F)F)c(C(=O)N3Cc4nccnc4C3)c2)C1=O` (stereo partly drawn) [Compound 4, (5R)-3-{1-[3-(5,7-dihydro-6H-pyrrolo[3,4-b]pyrazin-6-ylcarbonyl)-4-(trifluoromethyl)-phenyl]-2-phenylethyl}-5-(4-fluorophenyl)-2-imino-5-(3-methylbutyl)-imidazolidin-4-one], 0.2 nM. To `COc1ccc(CN2C(=N)NC(c3ccc(Cl)cc3)(c3ccc(Cl)cc3)C2=O)cc1C(=O)N1Cc2nccnc2C1` [Compound 369, 5,5-bis(4-chlorophenyl)-3-[3-(5,7-dihydro-6H-pyrrolo[3,4-b]pyrazin-6-ylcarbonyl)-4-methoxybenzyl]-2-iminoimidazolidin-4-one] belongs 31.4 nM; to `CC(=O)N1CCN(C(=O)c2cc(F)cc(CN3C(=N)NC(c4ccccc4)(c4ccccc4)C3=O)c2)CC1` [Compound 323, 3-{3-[(4-acetylpiperazin-1-yl)carbonyl]-5-fluorobenzyl}-2-imino-5,5-diphenylimidazolidin-4-one], 57 nM. To `N=C1N[C@](CCCC(F)(F)F)(c2ccc(F)cc2)C(=O)N1Cc1ccc(C(F)(F)F)c(C(=O)N2Cc3cnc(-c4cccc5[nH]ncc45)nc3C2)c1` [Compound 22, (5R)-5-(4-fluorophenyl)-2-imino-3-[3-{[2-(1H-indazol-4-yl)-5,7-dihydro-6H-pyirolo[3,4-d]pyrimidin-6-yl]carbonyl}-4-(trifluoromethyl)benzyl]-5-(4,4,4-trifluorobutyl)imidazolidin-4-one] belongs 2.32 nM. In the case of `COC(=O)N1CCN(C(=O)c2cc(CN3C(=N)NC(c4ccccc4)(c4ccccc4)C3=O)ccc2C(F)(F)F)CC1` [Compound 161, methyl 4-({5-[(2-imino-5-oxo-4,4-diphenylimidazolidin-1-yl)methyl]-2-(trifluoromethyl)phenyl}-carbonyl)piperazine-1-carboxylate], the half-inhibitory concentration (IC50) worked out at 25.2 nM. To `CC(C)Cn1cc(-c2ncc3c(n2)CN(C(=O)c2cc(CN4C(=N)N[C@](CCCC(F)(F)F)(c5ccc(F)cc5)C4=O)ccc2C(F)(F)F)C3)cn1` [Compound 46, (5R)-5-(4-fluorophenyl)-2-imino-3-[3-({2-[1-(2-methylpropyl)-1H-pyrazol-4-yl]-5,7-dihydro-6H-pyrrolo[3,4-d]pyrimidin-6-yl}carbonyl)-4-(trifluoromethyl)-benzyl]-5-(4,4,4-trifluorobutyl)-imidazolidin-4-one] belongs 4.82 nM; to `Cc1nc2c([nH]1)CN(C(=O)c1cccc(CN3C(=N)NC(CC(C)C)(c4ccccc4)C3=O)c1)C2` (stereo not shown) [Compound 274, 2-imino-3-{3-[(2-methyl-4,6-dihydropyrrolo[3,4-d]imidazol-5(1H)-yl)carbonyl]benzyl}-5-(2-methylpropyl)-5-phenylimidazolidin-4-one], 28.8 nM.

Turning to `N=C1N[C@](CCCC(F)(F)F)(c2ccc(F)cc2)C(=O)N1Cc1ccc(C(F)(F)F)c(C(=O)N2Cc3cnc(N4CCOCC4)nc3C2)c1` [Compound 83, (5R)-5-(4-fluorophenyl)-2-imino-3-{3-[(2-morpholin-4-yl-5,7-dihydro-6H-pyrrolo[3,4-d]pyrimidin-6-yl)carbonyl]-4-(trifluoromethyl)-benzyl}-5-(4,4,4-trifluorobutyl)imidazolidin-4-one], the IC50 stood at 13.9 nM. As for `CCCC1(c2ccccc2)NC(=N)N(Cc2cccc(C(=O)N3CCN(c4ncccn4)CC3)c2)C1=O` (stereo not shown) [Compound 320, 2-imino-5-phenyl-5-propyl-3-{3-[(4-pyrimidin-2-ylpiperazin-1-yl)carbonyl]benzyl} imidazolidin-4-one], the IC50 was 56.7 nM. For `CC(C)CC[C@]1(c2ccc(F)cc2)NC(=N)N(C(c2ccc(C(F)(F)F)c(C(=O)N3Cc4nccnc4C3)c2)C2CCCC2)C1=O` (stereo partly drawn) [Compound 101, (5R)-3-{cyclopentyl[3-(5,7-dihydro-6H-pyrrolo[3,4-b]pyrazin-6-ylcarbonyl)-4-(trifluoromethyl)-phenyl]methyl}-5-(4-fluorophenyl)-2-imino-5-(3-methylbutyl)-imidazolidin-4-one], the IC50 turned out to be 23.2 nM.

The record behind these values is US20200069691A1, “HETEROCYCLIC COMPOUNDS AS HIV PROTEASE INHIBITORS” (Merck Sharp & Dohme Corp., priority 2016, published 2020).
